From PubChem BioAssay (NCI)
Values joined by “and” are separate entries in the source; they are usually repeats but may differ in a detail not shown here. Equal values may be shown once.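 Briefly, cells in 96-well plates were exposed to five compound concentrations for 48 h, and endpoints were estimated by linear interpolation. At the GI50, growth is halved. TGI is the concentration that stops growth completely.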

Legend:
Assay in all cases: NCI tumour cell line growth inhibition, 48 h
SF-539 CNS = test system: SF-539 CNS
SN12C renal = test system: SN12C renal
HCC-2998 colon = test system: HCC-2998 colon
OVCAR-4 ovarian = test system: OVCAR-4 ovarian
KM20L2 colon = test system: KM20L2 colon
TK-10 renal = test system: TK-10 renal
DU-145 prostate = test system: DU-145 prostate
EKVX NSCLC = test system: EKVX NSCLC
SR leukemia = test system: SR leukemia
HCT-15 colon = test system: HCT-15 colon

SMILES | TGI (SF-539 CNS) | TGI (SN12C renal) | TGI (HCC-2998 colon) | TGI (OVCAR-4 ovarian) | TGI (KM20L2 colon) [µM] | TGI (TK-10 renal) [µM] | TGI (DU-145 prostate) [µM] | TGI (EKVX NSCLC) | TGI (SR leukemia) [µM] | TGI (HCT-15 colon) | GI50 (SF-539 CNS) [µM] | GI50 (SN12C renal) [µM] | GI50 (HCC-2998 colon) [µM] | GI50 (OVCAR-4 ovarian) [µM] | GI50 (EKVX NSCLC) [µM]
CCCCCCN(CCCCCC)C(=S)N/N=C(\C)c1ccccn1 | 2.77 µM | 2.56 µM | 9.03 µM | 3.16 µM | 2.34 | 2.5 | 2.59 | 3.01 µM | 11.5 | 3.4 µM |  |  |  |  | 
CN(C)c1nc(Oc2nc(N(C)C)nc(N(C)C)n2)nc(N(C)C)n1 | > 100 µM | > 100 µM | > 100 µM | > 100 µM | > 100 | > 100 |  | > 100 µM | > 100 | > 100 µM |  |  |  |  | 
CCCCCCCC(=O)OCC(COC(=O)C(C)(C)C)OC(=O)Cc1ccccc1 (centres undefined) |  | > 100 µM | > 100 µM | > 100 µM | > 100 | > 100 |  |  |  | > 100 µM |  |  |  |  | 
O=[N+]([O-])c1ccc(C[P+]2(c3ccccc3)CCCCC2)cc1 | > 100 µM | > 100 µM | > 100 µM |  | > 100 | > 100 |  | > 100 µM | > 100 | > 100 µM |  |  |  |  | 
C[C@]12CCC3[C@@H](CCC45OC4C(=O)CC[C@]35C)C1Cc1cnn(-c3ccc(F)cc3)c1N2 (some centres undefined) |  | 48.4 µM |  |  | 62.6 | > 100 |  | > 100 µM | > 100 | 33.9 µM |  |  |  |  | 
c1ccc(C2=NC3OC2c2ccccc23)cc1 (centres undefined) | > 10 µM | > 10 µM | > 10 µM | > 10 µM |  | > 10 | > 10 | > 10 µM | > 10 | > 10 µM |  |  |  |  | 
COc1cc(C)c(CC/C(C)=C/Cc2cc(O)ccc2O)c(C)c1C | > 25 µM | > 25 µM | > 25 µM | > 25 µM | > 25 | > 25 |  | > 25 µM | > 25 | > 25 µM |  |  |  |  | 
O=c1oc2ccc3ccccc3c2cc1-c1cn2ccsc2n1 | 51.2 µM | 83.8 µM | 67.9 µM | 40.7 µM |  | 33.9 | 47.3 | 54.5 µM | 46.9 | 35.9 µM |  |  |  |  | 
CCOC(=O)CSc1nc(N)c2c(-c3ccccc3)c3c(nc2n1)CCCC3 | > 100 µM | > 100 µM | > 100 µM | > 100 µM |  | > 100 | > 100 | > 100 µM | > 100 | > 100 µM |  |  |  |  | 
COC(=O)/C=C(/C=C1/C(C#N)=C(N)N(c2ccc(Cl)cc2)C1(C)/C(=C\C(=O)OC)C(=O)OC)C(=O)OC (centres undefined) | 32.7 µM | 37.6 µM | 39.2 µM | 60.5 µM |  | 81 | 89.2 | > 100 µM | > 100 | 50.2 µM |  |  |  |  | 
Cc1c2ccnc(C(N)=O)c2c(C)c2c1[nH]c1ccccc12 | 23.9 µM and 13.9 µM | 27.9 µM and 31.6 µM | 50 µM and 19.4 µM | 29.7 µM and 93.7 µM | 40.5 | 22.5 |  | 35.3 µM and 46.8 µM |  | 41.1 µM and > 100 µM | 3.75 | 5.44 | 4.67 | 7.56 | 6.56
Cc1ccccc1-c1nc2c(N)nc(N)nc2nc1N | > 100 µM | > 100 µM | > 100 µM | > 100 µM |  | > 100 | > 100 | > 100 µM | > 100 | > 100 µM |  |  |  |  | 
CSCC[C@@H](NC(=O)[C@H](CC(C)C)NC(=O)C(Cc1cnc[nH]1)NC(=O)CNC(=O)[C@@H](NC(=O)[C@H](C)NC(=O)[C@H](Cc1c[nH]c2ccccc12)NC(=O)[C@H](CCC(N)=O)NC(=O)[C@@H](N)CC(N)=O)C(C)C)C(N)=O (some centres undefined) | > 100 µM | > 100 µM | > 100 µM | > 100 µM | > 100 |  |  | > 100 µM |  | > 100 µM |  |  |  |  | 
CCOC(=O)c1c(N2CCCC2)[nH]c(=O)c(C(c2ccc(OC)cc2)c2c(O)c(C(=O)OCC)c(N3CCCC3)[nH]c2=O)c1O | > 100 µM | > 100 µM | > 100 µM | > 100 µM |  | > 100 | > 100 | > 100 µM | > 100 | > 100 µM |  |  |  |  | 
CCOC1C=CC(=O)C(CO)O1 (centres undefined) | 23.8 µM | 26.8 µM | 34.4 µM | 26.5 µM |  | 22.7 | 31.2 | 33.3 µM | 6.63 | 25.3 µM |  |  |  |  | 
COC(=O)CC(=O)OSc1ccccc1 | 25.5 µM | 27.1 µM | 95 µM | > 100 µM | 42.2 | > 100 |  | 89.2 µM | 42 |  |  |  |  |  | 
